According to US8921304B2, “Modified ubiquitin proteins having a specific binding activity for the extradomain B of fibronectin” (Scil Proteins GmbH, priority 2009, dated 2014):
Entries after “also recorded” stand apart in the source; their conditions may differ. Read-outs that look alike come from different tables or passages of the source.

Legend:
[1] = molecular target: T1, ED-B (F9 tumor vasculature) (Mus musculus, UniProt P11276); assay: immunohistochemistry on F9 tumor tissue sections; type: binding, mice; details: seven samples; 10 nM to 100 nM / 500 nM
T1 construct: 1041-D11 specifically decorates the vasculature in tissue sections from F9 tumors; from tissue; host or cells: F9 tumor tissue sections from mice
T1 sequence (P11276 33-2477): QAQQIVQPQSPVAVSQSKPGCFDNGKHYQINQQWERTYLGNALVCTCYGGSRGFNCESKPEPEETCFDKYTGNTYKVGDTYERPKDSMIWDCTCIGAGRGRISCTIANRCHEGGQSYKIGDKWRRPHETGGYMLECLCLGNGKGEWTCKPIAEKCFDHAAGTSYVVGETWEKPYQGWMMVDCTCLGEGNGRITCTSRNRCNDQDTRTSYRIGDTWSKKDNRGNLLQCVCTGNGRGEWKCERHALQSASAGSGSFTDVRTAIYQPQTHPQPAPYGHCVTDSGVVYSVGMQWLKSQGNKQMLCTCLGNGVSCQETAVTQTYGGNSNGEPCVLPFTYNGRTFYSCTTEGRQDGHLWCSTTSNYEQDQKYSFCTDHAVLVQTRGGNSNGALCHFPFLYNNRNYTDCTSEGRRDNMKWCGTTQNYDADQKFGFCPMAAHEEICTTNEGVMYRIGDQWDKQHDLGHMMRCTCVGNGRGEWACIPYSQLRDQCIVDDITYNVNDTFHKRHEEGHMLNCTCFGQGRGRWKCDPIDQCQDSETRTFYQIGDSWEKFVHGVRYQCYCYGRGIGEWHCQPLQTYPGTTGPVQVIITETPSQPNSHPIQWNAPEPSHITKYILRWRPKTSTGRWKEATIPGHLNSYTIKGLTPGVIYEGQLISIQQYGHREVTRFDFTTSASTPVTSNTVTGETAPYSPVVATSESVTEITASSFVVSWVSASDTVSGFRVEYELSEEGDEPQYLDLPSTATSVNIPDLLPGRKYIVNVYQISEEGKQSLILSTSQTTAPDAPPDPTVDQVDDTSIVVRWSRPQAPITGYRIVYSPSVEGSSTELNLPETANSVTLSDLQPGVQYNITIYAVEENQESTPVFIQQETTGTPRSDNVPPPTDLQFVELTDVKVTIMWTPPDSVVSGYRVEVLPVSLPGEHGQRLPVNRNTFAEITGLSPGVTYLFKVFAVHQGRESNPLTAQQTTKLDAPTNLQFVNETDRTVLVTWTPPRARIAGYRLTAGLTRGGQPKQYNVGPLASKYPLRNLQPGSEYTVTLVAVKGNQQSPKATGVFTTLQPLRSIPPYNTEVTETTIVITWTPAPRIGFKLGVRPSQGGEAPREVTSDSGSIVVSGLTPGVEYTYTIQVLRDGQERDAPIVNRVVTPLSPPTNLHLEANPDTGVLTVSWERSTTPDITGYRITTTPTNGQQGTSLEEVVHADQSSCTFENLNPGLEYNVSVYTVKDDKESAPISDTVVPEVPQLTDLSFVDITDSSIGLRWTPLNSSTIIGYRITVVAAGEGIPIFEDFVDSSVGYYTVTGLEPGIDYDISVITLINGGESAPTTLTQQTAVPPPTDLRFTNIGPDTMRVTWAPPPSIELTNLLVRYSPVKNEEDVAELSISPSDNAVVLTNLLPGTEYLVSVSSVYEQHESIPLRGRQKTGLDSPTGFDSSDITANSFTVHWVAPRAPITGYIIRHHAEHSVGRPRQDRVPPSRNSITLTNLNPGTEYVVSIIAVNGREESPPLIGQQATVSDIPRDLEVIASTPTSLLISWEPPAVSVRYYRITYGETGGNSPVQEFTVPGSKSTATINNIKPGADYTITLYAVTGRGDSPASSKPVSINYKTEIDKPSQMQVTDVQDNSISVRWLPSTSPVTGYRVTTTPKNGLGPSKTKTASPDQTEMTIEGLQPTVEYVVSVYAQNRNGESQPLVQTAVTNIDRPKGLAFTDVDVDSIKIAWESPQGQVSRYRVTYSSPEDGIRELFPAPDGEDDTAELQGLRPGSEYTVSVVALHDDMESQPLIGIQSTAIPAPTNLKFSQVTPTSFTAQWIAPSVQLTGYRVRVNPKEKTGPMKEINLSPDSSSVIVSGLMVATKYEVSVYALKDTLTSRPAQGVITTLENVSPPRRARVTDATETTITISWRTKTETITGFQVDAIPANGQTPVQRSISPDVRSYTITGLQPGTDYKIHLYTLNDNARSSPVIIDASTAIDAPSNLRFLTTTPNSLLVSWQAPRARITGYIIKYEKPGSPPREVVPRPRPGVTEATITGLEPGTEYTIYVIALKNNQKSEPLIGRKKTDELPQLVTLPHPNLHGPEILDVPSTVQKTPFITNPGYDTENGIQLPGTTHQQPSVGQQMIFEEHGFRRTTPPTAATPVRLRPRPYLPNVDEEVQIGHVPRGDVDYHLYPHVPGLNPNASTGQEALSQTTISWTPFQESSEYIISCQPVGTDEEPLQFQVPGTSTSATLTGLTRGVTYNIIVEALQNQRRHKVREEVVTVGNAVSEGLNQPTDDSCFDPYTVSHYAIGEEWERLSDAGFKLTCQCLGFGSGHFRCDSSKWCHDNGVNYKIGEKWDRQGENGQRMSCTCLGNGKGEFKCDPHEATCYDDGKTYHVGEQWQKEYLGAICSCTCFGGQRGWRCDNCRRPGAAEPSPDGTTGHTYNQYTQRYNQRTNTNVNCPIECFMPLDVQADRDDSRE
Protocol: F9 tumor tissues from seven samples were evaluated. […] ED-B is a highly specific marker for tumor vasculature. The target protein EDB is located on the abluminal side of the vessels. 1041-D11 specifically decorates the vasculature in tissue sections from F9 tumors. […] Thus, fusion proteins based on modified ubiquitin specifically binding to ED-B are suitable an ED-B based targeted therapy for cancer.

[2] = molecular target: fibronectin fragment 67B89 (ED-B) (Homo sapiens, UniProt P02751); assay: complex-formation analysis by SE-HPLC with 67B89; type: binding; details: 0.72 nmol each, 1 h at RT
Sequence of fibronectin fragment 67B89 (ED-B) (P02751 1085-1537 limits assumed): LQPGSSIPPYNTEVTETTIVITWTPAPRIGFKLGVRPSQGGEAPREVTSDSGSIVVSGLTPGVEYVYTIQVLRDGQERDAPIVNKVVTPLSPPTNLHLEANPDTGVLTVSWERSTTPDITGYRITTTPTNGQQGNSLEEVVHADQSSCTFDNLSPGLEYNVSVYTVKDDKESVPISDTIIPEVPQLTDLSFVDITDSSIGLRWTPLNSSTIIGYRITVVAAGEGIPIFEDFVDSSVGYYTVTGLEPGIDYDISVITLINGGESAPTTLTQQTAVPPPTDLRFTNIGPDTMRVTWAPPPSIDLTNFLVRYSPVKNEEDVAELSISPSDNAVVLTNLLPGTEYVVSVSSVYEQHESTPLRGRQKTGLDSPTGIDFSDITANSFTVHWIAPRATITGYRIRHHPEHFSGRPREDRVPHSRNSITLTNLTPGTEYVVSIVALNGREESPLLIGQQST
Protocol: (§1) For the analysis of complex formation, Tricorn Superdex 75 5/150 GL columns (GE-Healthcare) (V=3 ml) was used, protein amount of 50 μl was applied. Further conditions: buffer: 1×PBS, pH 7.3, flow-rate: 0.3 ml/min, run: 45 min (injection of sample: after 15 min). Condition: 0.72 nmol 1041-D11 protein+0.72 nmol ED-B (herein referred to 67B89 or also as a negative control 6789) incubated for 1 h at RT; then applied to column for analysis of complex-formation. In FIGS. 14A and 14B, only the variant is shown in black, only the target ED-B is shown in blue, the variant binding building a complex with ED-B in pink.

[3] = system: murine Balb 3T3-cells; assay: binding to cell culture cells, Balb 3T3; type: cell-based; details: 1, 10, 50 nM
Protocol: (§2) The binding of variant 1041-D11 to cell culture cells was tested. Different cell culture cells were analysed, including normal human fetal lung fibroblast cells having high expression levels of ED-B (Wi38 cells), a mouse embryonic fibroblast cell line (Balb 3T3); a stromal cell line, derived from mouse bone marrow (ST-2) monocytes/macrophages (RAW 264.7), NHDF cells and murine fibroblast cells (LM).
(§3) Similar experiments were performed using different cells types, for example Balb3T3 (ATCC, Kat-Nr. 30-2002), Raw (Lonza, Kat-Nr. BE12-115F/U1), ST-2 (Lonza, Ka t-Nr. BE12-115F/U1).

[4] = system: murine ST-2-cells; assay: binding to cell culture cells, ST-2; type: cell-based; details: 1, 10, 50 nM
Protocol: as §2, §3

[5] = molecular target: ED-B containing fibronectin fragment (67B89) (Homo sapiens, UniProt P02751); assay: label-free interaction assay using BIACORE; type: binding
Sequence of ED-B containing fibronectin fragment (67B89) (P02751 1085-1537 limits assumed): as above
Protocol: Different concentrations of the variant were analyzed (for example, 0-200 nM of the variant, preferably 1041-D11) for binding to an ED-B containing fibronectin fragment (referred to as 67B89) immobilized on a CMS-chip (BIACORE®) using methods known to those skilled in the art. The obtained data were processed via the BIAevaluation software and 1:1-Langmuir-fitting. The kinetic binding constants were kon=7.6*10^5 M^−1s^−1; koff=7.7*10^−4 s^−1. The kinetic binding constants were kon=4.5*10^5 M^−1 s^−1; koff 5.0^*10^−4 s^−1.

[6] = molecular target: ED-B (Homo sapiens, UniProt P02751); assay: ED-B binding analysis, method not stated (FIG. 7, general statements)
Sequence of ED-B (P02751 1266-1356 limits assumed): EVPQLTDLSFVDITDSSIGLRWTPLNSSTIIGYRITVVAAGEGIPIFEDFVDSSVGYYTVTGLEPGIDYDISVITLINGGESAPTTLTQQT

[7] = system: 48 tissues in FDA relevant panel; assay: tissue panel staining (48 tissues); type: binding
[8] = molecular target: T2, Human fibronectin lacking the ED-B domain (h6789) (Homo sapiens, UniProt P02751); assay: concentration dependent ELISA, negative control fibronectin fragment without ED-B; type: binding; details: conc.-ELISA, open circles
T2 construct: Human fibronectin lacking the ED-B domain (h6789)
T2 sequence (P02751 1085-1446 isoform P02751-1): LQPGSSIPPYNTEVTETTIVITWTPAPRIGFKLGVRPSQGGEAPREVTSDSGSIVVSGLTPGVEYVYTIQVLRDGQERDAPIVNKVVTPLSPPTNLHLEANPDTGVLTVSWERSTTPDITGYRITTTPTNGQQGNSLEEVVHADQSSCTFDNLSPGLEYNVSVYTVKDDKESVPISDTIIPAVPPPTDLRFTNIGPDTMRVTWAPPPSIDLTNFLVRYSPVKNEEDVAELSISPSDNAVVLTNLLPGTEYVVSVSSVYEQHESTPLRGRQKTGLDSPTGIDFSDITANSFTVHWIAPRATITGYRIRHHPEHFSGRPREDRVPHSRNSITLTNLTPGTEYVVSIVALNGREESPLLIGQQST

[9] = system: human fetal lung fibroblast cells (Wi38); assay: binding to cell culture cells, Wi38; type: cell-based; details: immunofluorescence
Protocol: as §2
The negative control cell type NHDF are primary normal fibroblast cells, which express low levels of EDB-fibronectin (data not shown).
The negative control cells type NHDF are primary normal fibroblast cells, which express low levels of EDB-fibronectin. The cells were plated in chamber-slides (NUNC, 60000 cells/ml). To analyses the binding potential the cells were fixed with 100% MeOH for 5 min at −20° C. To block unspecific binding, the cells were incubated with 5% Horse-serum 1 h 37° C. The cells were tested with the variant 1041-D11, an ED-B specific antibody FV28 CH4/F1 as positive control or UB—2 as negative control with different concentrations 1 h RT. The proving occurred about an incubation with rabbit-a-Strep-Tag-IgG (obtained from GenScript A00875, 1:500) for 1 h and incubation with a-rabbit-IgG*Alexa488-AK (obtained from Invitrogen A11008, 1:1000) for 1 h. The nuclei were stained with DAPI. […] The first 2 lines show the variant and positive control on Wi38-cell line.

[10] = molecular target: T3, fibronectin fragment 6789 without ED-B (Homo sapiens, UniProt P02751); assay: complex-formation analysis by SE-HPLC with 6789; type: binding; details: 0.72 nmol each, 1 h at RT
T3 construct: fibronectin fragment 6789 without ED-B
T3 sequence (P02751 1089-1449 isoform P02751-1): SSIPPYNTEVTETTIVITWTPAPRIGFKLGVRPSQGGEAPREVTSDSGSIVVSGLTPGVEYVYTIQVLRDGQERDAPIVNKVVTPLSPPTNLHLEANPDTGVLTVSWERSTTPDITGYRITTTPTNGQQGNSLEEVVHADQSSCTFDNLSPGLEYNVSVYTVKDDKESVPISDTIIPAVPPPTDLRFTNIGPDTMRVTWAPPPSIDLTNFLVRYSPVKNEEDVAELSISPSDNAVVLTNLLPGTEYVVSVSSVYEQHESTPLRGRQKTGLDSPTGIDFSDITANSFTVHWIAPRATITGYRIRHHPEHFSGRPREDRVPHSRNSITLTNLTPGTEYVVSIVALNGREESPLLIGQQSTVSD
Protocol: as §1

[11] = system: F9 tumor tissues; assay: accumulation in F9 tumor tissue; type: in vivo, mice; details: time points between 30 min and 16 h
[12] = system: L929 cells; assay: L929 apoptosis assay (TNF-alpha activity); type: cell-based
Protocol: The physiological TNF-alpha-activity of TNF-alpha-modified ubiquitin based ED-B binding fusions has been determined using the L929 apoptosis assay (Flick et al., 1984 J. Immunol. Methods. 68:167-175). In this assay, TNF-alpha efficiently stimulates cell death in actinomycinD sensitized cells at EC50 values in the picomolar range.
Cells have been resuspended in medium containing FBS and antibiotics. A cell suspension of 100 μl of a densitiy of 3.5×10^5 cells/ml has been seeded into the wells of a 96 well standard cell culture plate followed by over night incubation in a humidified CO2 incubator. Thereafter, the culture medium has been removed and 50 μl of medium containing FBS, ActinomycinD and antibiotics has been added to each well followed by a further 30 min incubation time. Thereafter, 50 μl of the test items, TNF-alpha-modified ubiquitin based ED-B binding-fusions or the human recombinant TNF-alpha control, at an appropriate concentration range of between 10^−7 and 10^−18 M, have been added. After a further 48 h incubation time the metabolic activity as a measure of cell survival was determined using WST-1 reagent (Roche).
Per test item at least three independent experiments have been conducted, each of them in triplicates. […]
The quantitative evaluation is based on the EC50-value, i.e. the value according to the test item concentration promoting the survival of half of the cells.

[13] = system: EDB expressing cells; assay: binding specificity of the TNF-alpha fusion in cell culture (FIG. 17E); type: cell-based
[14] = system: F9 teratoma; type: in vivo; details: for effect on tumor growth: stage 1
Protocol: To establish the therapeutic efficacy of 1041-D11-TNFalpha, the compound was tested on F9 teratoma (see Borsi et al., 2003 Blood 102, 4384-4392) in mouse models. […] F9 teratoma is an aggressive tumor with high vascular density. […] The experimental schedule for the efficacy study was adapted from Borsi, 2003.
Stage 1 defined the pharmacologic active and tolerable dose with endpoints relating to the ratio of tumor vs. body weight, weight loss and survival. […]
Stage 2 of the study defined the dose-dependent efficacy with Melphalan having as endpoint the retardation of tumor growth (animal weight loss>10%, tumor>10% body weight, ulceration of tumor). In the study, 1041D11/mTNFa, murine TNFa, in combination with melphalan were tested.

staining of F9 tumor tissue sections [1] | koff [5] [s⁻¹] | ED-B binding activity [6] | Substance | complex formation with 67B89 (ED-B) [2] | binding on fixed murine Balb 3T3-cells [3] | binding on fixed murine ST-2-cells [4] | kon [5] [M⁻¹ s⁻¹] | unspecific staining in 48 tissues [7] | binding to negative control fragment 6789 [8] | binding on vital Wi38 cells ([9]; different concentrations) | binding on fixed Wi38 cells ([9]; 58.7 nM and 587 nM) | complex formation with 6789 (no ED-B) [10] | accumulation in F9 tumor tissue [11] | apoptosis inducing TNF-alpha activity [12] | binding to EDB expressing cells ([13]; target(+)) | cross reaction in serum without ED-B ([13]; target(−)) | relative tumor growth ([14]; in combination with Melphalan, 7 days, versus mTNFalpha with Melphalan or Melphalan alone) | effect on tumor growth ([14]; highest dose (6.75 μmol/g)) | effect on tumor growth ([14]; lowest dose (0.25 pmol/g))
ED-B specific vascular staining | 0.00077 | superior ED-B binding activity | 1041-D11: hetero-dimeric ubiquitin variant: K6W, L8W, K63R, E64K, S65F, T66P; second module K6T, L8Q, Q62W, K63S, E64N, S65W, T66E, Q2R | formation of a complex; also recorded: builds a complex | binds to murine Balb 3T3 cells with high specificity | binds to murine Balb ST-2 cells with high specificity | 760000 | no unspecific staining | no binding | binds to vital Wi38 cells with high specificity | binds to fixed Wi38 cells with high specificity | no significant binding; also recorded: no complex | enriched |  |  |  |  |  | 
 |  |  | 1041-D11-TNFalpha: fusion protein of hetero-dimeric variant 1041-D11 and TNFα (mouse or human) |  |  |  | 450000 |  | not bound |  |  |  |  | as active as free TNF-alpha | specifically binds | no cross reaction | reduces the relative tumor growth more efficiently | no suppressing effect on tumor growth | seems to retard tumor growth
